Patent publication US20080311589A1, “METHOD OF HIGH-THROUGHPUT SCREENING OF MOLECULES AND COMPOUNDS FOR THEIR EFFECTS ON BIOLOGICAL AND CHEMICAL PROCESSES” (priority 1999, published 2008)

How the values were obtained:
[1] = test system: Mv1Lu mink lung epithelial cells; assay: 1536 well BrdU cytoblot; type: cell-based; conditions: 1536-well plate, approximately 500 cells per well
Procedure: FIG. 3. BrdU incorporation can be efficiently detected with a cytoblot in 1536 well plates in 2 μL droplets. 500 Mv1Lu mink lung epithelial cells were seeded in each well of a white, opaque 1536 well plate (Corning/Costar, Corning, N.Y.). The cells were seeded with or without […] TGF-β in 2 μL of 1% mink medium and allowed to incubate at 37° C. with 5% CO2. After 24 hours, 0.5 μL of 50 μM BrdU in 1% mink medium was added to the indicated wells, for a final concentration of 10 μM BrdU. The plate were incubated at 37° C. with 5% CO2 for an additional 12 hours and then an anti-BrdU cytoblot protocol was performed (see protocols). Wells are magnified as indicated.
Thus, the application of the cytoblot assay to plates containing a higher density of wells was tested. Mink lung cells were seeded into opaque, white 1536-well plates with each well containing approximately 500 cells. Next, the ability of TGF-β to prevent BrdU incorporation was assayed. […] The following protocol provides experimental detail.
The reagents to be tested were prepared in 1536 well plates (Greiner America, Lake Mary, Fla.), with one or more test compounds per well. If the test compounds were attached on solid support (beads), then the beads were distributed into individual wells of 1536 well white plate in acetonitrile. […]

[2] = test system: Golgi apparatus or lysosomes; assay: distribution of lysosomes and Golgi apparatus; type: cell-based; conditions: concentrations that caused strong spindle defects; interphase cells
Excerpt: We investigated the phenotype of mammalian cells (BS-C-I) treated with the compounds of group III. Live images were taken as described previously (Cramer et al., Curr. Op. Cell Biol. 6:82, 1994); for immunofluoresence, the cells were stained with a Golgi-specific antibody (anti-Golgi 58K protein antibodies [Sigma]) or with anti-α-tubulin antibodies (DM1 A [Sigma]); actin was visualized using TRIC-conjugated phalliodin (Sigma); lysosomes were stained with LysoTracker (Molecular Probes; Palmiter et al., EMBO J. 15:1784, 1996). Our examination of the distribution of microtubules, actin, and chromatin in fixed cells by fluorescence microscopy allowed us to divide the small molecules into three classes. Twenty-seven had no observable effect on the microtubule and actin cytoskeleton or on cheomosome distribution. Consistent with the data from the cytoblot assay we observed an increase in the number of normal appearing mitotic cells. These compounds may increase the mitotic index by perturbing the function of proteins that regulate progression through the cell cycle, e.g., anaphase regulators, rather than structural or mechanochemical components of the mitotic spindle. It is also possible that these compounds have a subtle effect on cytoskeletal dynamics or chromosome organization that may not be observable in fixed cells. […]

BS-C-1 cells = assay: fluorescence microscopy and live imaging of BS-C-1 cells; type: cell-based, monkey
Procedure: We investigated the phenotype of mammalian cells (BS-C-I) treated with the compounds of group III. […] Our examination of the distribution of microtubules, actin, and chromatin in fixed cells by fluorescence microscopy allowed us to divide the small molecules into three classes.
In brief, BSCI cells were seeded on glass coverslips and cultured overnight.
We then asked whether the chromosomes surrounding the monoastral microtubule array maintain microtubule attachment.

TGF-β: anti-mitogen transforming growth factor β, multifunctional polypeptide signaling factor
BrdU incorporation [1]: effectively prevents BrdU incorporation

monastrol
localization and organization of Golgi apparatus or lysosomes [2]: did not affect localization and organization of the Golgi apparatus or lysosomes in interphase cells
mitotic cells displaying the monoastral phenotype (BS-C-1 cells): Over 90%
microtubule, spindle and chromosome phenotype (BS-C-1 cells; BS-C-1 cells, 1A at 40 μM for 4 hours): the bipolar spindle was replaced with a monoastral microtubule array surrounded by a ring of chromosomes
chromosome attachment to microtubules (BS-C-1 cells; live images of BS-C-1 cells): does not inhibit chromosome attachment to microtubules
